Here are results for five compounds from patent US4018775A, “5-Phenyl-thiazolidin-4-one derivatives” (Warner-Lambert Company, priority 1974, dated 1977).

Read-outs that look alike come from different tables or passages of the source. A value given as a limit tells only on which side of the number the result lay.

Format in all cases: in vivo
The nature of data set [1]: Acute toxicity in the 7 day test on mice. Particulars: mouse, in vivo, po; male NMRI mice, intragastral (i.g.), 7 days observation. As to the method: (§1) The acute toxicity of the thiazolidones according to the present invention was investigated on male mice (NMRI) with a body weight of 21-26 g. Before commencement of the experiment, the animals fasted for 24 hours but with water available ad libitum. There were 4 mice in each dosage group. The dosage was increased by a factor of 2. The test compounds were suspended in a 1% tragacanth mucilage and administered intragastrally by, means of a stomach probe. The amount of liquid administered was 0.2 ml./10 g. body weight. […] Silymarin was used as standard substance. The LD50 values determined are set out in the following Table I: […]

Data set [2] has as its system mice with liver damage caused by α-amanitine. As to the kind of experiment: Anti-hepatotoxic action: survival rate of mice with liver damage caused by α-amanitine. Particulars: for effect on survival rate of α-amanitine liver damaged mice (in words): in comparison with untreated control animals. On the procedure: As a further animal experimental test model for the testing of the anti-hepatotoxic actions of pharmaceuticals, use is made of the liver damage in mice produced by α-amanitine.
Since it is extremely difficult to obtain α-amanitine in sufficient amounts, only a small amount of α-amanitine was available for these experiments so that the experiments could only be carried out to a very limited extent.
The influence of Compounds Nos. 1 and 4 was determined on the survival rate of mice with liver damage brought about by α-amanitine. As standard substance, there was again used silymarin which was tested by us in the dosage found to be effective by Hahn et al. (Arzneimittel Forschung, 18, 697/1968) as an anti-hepatotoxic in the same experimental procedure.
Each experimental group consisted of 25 animals. The test substances were administered daily over a period of 6 days, administration being intragastrally in a tragacanth mucilage (0.2 ml./10 g. body weight), using a stomach probe.
The intraperitoneal administration of, in each case, 0.3 mg./kg. α-amanitine took place in all experimental groups on the second day of the experiment. The dosage of α-amanitine was so chosen that the mortality rate of the untreated animals remained below 100%. The survival rate of the animals of all experimental groups was monitored daily for a total period of 14 days. The statistical comparison of the survival rate took place according to the Vierfelder […]. The comparative values obtained are set out in the following Table III: […]

The subject of a further data set is male mice (NMRI). As to the kind of experiment: Acute toxicity in the 7 day test on mice. The following applies: intragastral (i.g.), 7 days observation. On the procedure:
as §1

Where [3] appears, read: 2 × 250 mg/kg/day i.g., untreated 52%, 14 days.

As usually defined, the LD50 is the dose expected to kill half of the subjects tested. Read a low LD50 as greater toxicity. For the compound `CCOC(=O)C=C1SC(c2ccccc2)(N2CCCCC2)C(=O)N1C` (stereo not drawn) [Compound 1, ethyl 3-methyl-5-phenyl-5-N-piperidino-4-oxo-Δ^2,^α -thiazolidine-acetate], the LD50 at 168 h in data set [1] is > 1600 mg/kg. In data set [2] (setting [3]), the “survival rate of α-amanitine liver damaged animals, treated” value (shortened to “survival rate … treated”) is listed as 92%. The “effect on survival rate of α-amanitine liver damaged mice (in words)” value in data set [2] is listed as “clearly increases the survival rate”.
For `CCOC(=O)C=C1SC(c2ccccc2)(N2CCCCC2)C(=O)N1CC` (stereo not drawn) [Compound 4, Ethyl 3-ethyl-5-phenyl-5-N-piperidino-4-oxo-Δ^2,^α -thiazolidine-acetate], the LD50 at 168 h in data set [1] is > 1600 mg/kg. In addition, in data set [2], the “survival rate … treated” value is listed as 100% and the “effect on survival rate of α-amanitine liver damaged mice (in words)” value was “statistically highly significant”. In addition, the “survival rate … treated” value in data set [2] (setting [3]) is reported as 100%.
As to `CCOC(=O)C=C1SC(c2ccccc2)(N(C)CCO)C(=O)N1CC` (stereo not drawn) [Compound 5, Ethyl 3-ethyl-5-phenyl-5-(methyl-β-hydroxyethylamino)-4-oxo-Δ^2,^α -thiazolidine-acetate], in data set [1], the LD50 at 168 h was > 1600 mg/kg.
On to `CCOC(=O)C=C1SC(CC)(c2ccccc2)C(=O)N1C` (stereo not drawn) [Compound 3, ethyl 3-methyl-5-ethyl-5-phenyl-4-oxo-Δ^2,^α -thiazolidine-acetate], for which the LD50 at 168 h in data set [1] was ~1600 mg/kg. The LD50 result in the data set with male mice (NMRI) is on record as “about 1600 mg./kg”.
Take `CCOC(=O)C=C1SC(c2ccccc2)(N2CCCC2)C(=O)N1C` (stereo not drawn) [Compound 2, ethyl 3-methyl-5-phenyl-5-N-pyrrolidino-4-oxo-Δ^2,^α -thiazolidine-acetate]: the LD50 at 168 h in data set [1] is > 1600 mg/kg.
